Drawing on ChEMBL document CHEMBL1147137, “Structure-activity relationship of uridine 5'-diphosphoglucose analogues as agonists of the human P2Y14 receptor” (J Med Chem, 2007), this text covers EC50 for eight molecules.

Bounds are passed on as bounds.

What is called EC50 is the concentration at which the effect is half-maximal.

In one test the target is T1, P2Y purinoceptor 14 (Homo sapiens, UniProt Q15391).
T1 sequence (Q15391 whole entry): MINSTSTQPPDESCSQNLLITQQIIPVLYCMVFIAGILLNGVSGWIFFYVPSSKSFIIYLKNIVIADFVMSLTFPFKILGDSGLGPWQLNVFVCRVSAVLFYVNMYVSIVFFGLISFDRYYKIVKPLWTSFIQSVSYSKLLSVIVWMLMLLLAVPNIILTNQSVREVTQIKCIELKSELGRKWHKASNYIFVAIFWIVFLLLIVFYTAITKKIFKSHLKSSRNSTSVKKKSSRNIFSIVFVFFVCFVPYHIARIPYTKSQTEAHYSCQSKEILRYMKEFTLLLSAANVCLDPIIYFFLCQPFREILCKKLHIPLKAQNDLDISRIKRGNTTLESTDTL
In words: Agonist activity at human P2Y14 expressed in COS7 cells assessed as stimulation of PLC-mediated [3H]inositol hydrolysis. Format: functional, cell-based, COS-7.
Conditions: not given
For `O=C(O)[C@H]1O[C@H](OP(=O)(O)OP(=O)(O)OC[C@H]2O[C@@H](n3ccc(=O)[nH]c3=O)[C@H](O)[C@@H]2O)[C@H](O)[C@@H](O)[C@@H]1O`, the EC50 was 370 nM (agonist).

Regarding `CSc1ccn([C@@H]2O[C@H](COP(=O)(O)OP(=O)(O)O[C@H]3O[C@H](CO)[C@@H](O)[C@H](O)[C@H]3O)[C@@H](O)[C@H]2O)c(=O)n1`, the 50% effective concentration (EC50) is over 10000 nM.

In the case of `O=c1ccn([C@@H]2O[C@H](COP(=O)(O)OP(=O)(O)O[C@H]3O[C@H](CO)[C@@H](O)[C@H](O)[C@H]3O)[C@@H](O)[C@H]2O)c(=S)[nH]1`, the EC50 is reported as 49 nM (agonist).

Consider `O=c1ccn([C@@H]2O[C@H](COP(=O)(O)OP(=O)(O)OC[C@@]3(O)O[C@H](CO)[C@@H](O)[C@@H]3O)[C@@H](O)[C@H]2O)c(=O)[nH]1`, for which the EC50 is 880 nM (agonist).

With `O=C(O)[C@H]1O[C@H](OP(=O)(O)OP(=O)(O)OC[C@H]2O[C@@H](n3ccc(=O)[nH]c3=S)[C@H](O)[C@@H]2O)[C@H](O)[C@@H](O)[C@@H]1O`, the EC50 is reported as 420 nM (agonist).

Take `O=c1[nH]c(=S)ccn1[C@@H]1O[C@H](COP(=O)(O)OP(=O)(O)O[C@H]2O[C@H](CO)[C@@H](O)[C@H](O)[C@H]2O)[C@@H](O)[C@H]1O`: the EC50 is on record as 350 nM (agonist).

In the case of `O=c1ccn([C@@H]2O[C@H](COP(=O)(O)OP(=O)(O)O[C@H]3[C@H](O)[C@@H](O)[C@H](O)[C@@H](O)[C@@H]3O)[C@@H](O)[C@H]2O)c(=O)[nH]1`, the EC50 was 1880 nM (agonist).

The same test, now with this note: cos-7.
In the case of `CC(=O)N[C@@H]1[C@H](OP(=O)(O)OP(=O)(O)OC[C@H]2O[C@@H](n3ccc(=O)[nH]c3=O)[C@H](O)[C@@H]2O)O[C@@H](CO)[C@H](O)[C@H]1O` (stereo in doubt), the EC50 is recorded as 810 nM (agonist).
